These results are taken from patent publication US5756521A, “Chroman-2-ylmethylamino derivatives” (American Home Products Corporation, priority 1997, dated 1998).

One may read the IC50 as the concentration that gives 50% inhibition.

The target in one assay is T1, dopamine D-2 receptor (Rattus norvegicus, UniProt P61169).
T1 construct: homogenized limbic brain tissue; from tissue
Put plainly: Dopamine D-2 receptor affinity, 3H-spiroperidol binding in homogenized limbic brain tissue. As to the method:
High affinity for the dopamine D-2 receptor was established by the standard experimental test procedure of Fields, et al., Brain Res., 136, 578 (1977) and Yamamura et al., eds., Neurotransmitter Receptor Binding, Raven Press, N.Y. (1978) wherein homogenized limbic brain tissue is incubated with ^3 H-spiroperidol (Spiper.) and various concentrations of test compound, filtered and washed and shaken with Hydrofluor scintillation cocktail (National Diagnostics) and counted in a Packard 460 CD scintillation counter.

Assay [1] has as its target T2, dopamine autoreceptor (D2, 3H-quinpirole) (Rattus norvegicus, UniProt P61169).
T2 construct: homogenized rat striatal brain tissue; from tissue; host or cells: rat striatal brain tissue
As to the kind of experiment: Dopamine autoreceptor affinity, 3H-quinpirole binding in homogenized rat striatal brain tissue. To be noted: rat striatal brain tissue homogenate, read-out: IC50 (nM), D2, (Quin.). As to the method: Affinity for the dopamine autoreceptor was established by a modification of the standard experimental test procedure of Seemen and Schaus, European Journal of Pharmacology 203: 105-109, 1991, wherein homogenized rat striatal brain tissue is incubated with ^3 H-quinpirole (Quin.) and various concentrations of test compound, filtered and washed and counted in a Betaplate scintillation counter.

Structures are written as SMILES.

T1 sequence (P61169 whole entry): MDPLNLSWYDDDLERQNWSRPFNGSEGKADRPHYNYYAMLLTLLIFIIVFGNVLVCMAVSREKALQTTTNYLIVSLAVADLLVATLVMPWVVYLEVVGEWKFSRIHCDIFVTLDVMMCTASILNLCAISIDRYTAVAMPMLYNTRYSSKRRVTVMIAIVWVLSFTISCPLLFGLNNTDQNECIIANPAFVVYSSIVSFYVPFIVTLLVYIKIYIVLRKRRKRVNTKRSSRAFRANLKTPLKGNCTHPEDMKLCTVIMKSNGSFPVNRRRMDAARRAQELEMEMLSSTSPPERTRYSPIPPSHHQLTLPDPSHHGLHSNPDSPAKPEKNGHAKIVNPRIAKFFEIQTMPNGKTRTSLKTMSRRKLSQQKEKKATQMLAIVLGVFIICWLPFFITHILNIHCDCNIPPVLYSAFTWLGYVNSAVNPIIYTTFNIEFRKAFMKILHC
T2 sequence (P61169 whole entry): as above

Turning to `Oc1ccc2c(c1)OC(CNCc1ccccn1)CC2` (stereo not drawn) [Example 1], the IC50 worked out at 1230 nM at dopamine D-2 receptor (3H-spiroperidol, limbic brain tissue homogenate, read-out: IC50 (nM), (Spiper.)) and 2.21 nM in assay [1]. Moreover, at dopamine D-2 receptor (ratio of IC50 (Spiper.) to IC50 (Quin.), LowAg/HighAg), the ratio was determined as 557.
